Experimental data from article PMC8379015, “Resistance of Mycobacterium tuberculosis to indole 4-carboxamides occurs through alterations in drug metabolism and tryptophan biosynthesis” (Cell Chemical Biology, 2021).
≈ marks a conversion by molar mass, not a printed value.

Legend:
[1] = tested on: M. tuberculosis H37Rv mutant 5B (amiC W238∗); type: cell-based, Mycobacterium tuberculosis
[2] = tested on: M. tuberculosis H37Rv mutant 5A (amiC K195∗); type: cell-based, Mycobacterium tuberculosis
[3] = tested on: M. tuberculosis H37Rv mutant 5G (amiC S157F); type: cell-based, Mycobacterium tuberculosis
[4] = tested on: M. tuberculosis H37Rv mutant 5I (amiC + g in aa352); type: cell-based, Mycobacterium tuberculosis
[5] = tested on: M. tuberculosis H37Rv mutant 5K (trpB A134V); type: cell-based, Mycobacterium tuberculosis
[6] = tested on: M. tuberculosis H37Rv mutant 5O (trpB D261G); type: cell-based, Mycobacterium tuberculosis
[7] = tested on: M. tuberculosis H37Rv mutant 5H (amiC + g in aa352); type: cell-based, Mycobacterium tuberculosis
[8] = tested on: M. tuberculosis H37Rv mutant 5M (trpB D261G); type: cell-based, Mycobacterium tuberculosis
[9] = tested on: M. tuberculosis H37Rv mutant 5N (trpA D54G); type: cell-based, Mycobacterium tuberculosis
[10] = tested on: M. tuberculosis H37Rv mutant 5J (trpB A168V); type: cell-based, Mycobacterium tuberculosis
[11] = tested on: C1-resistant mutants of M. tuberculosis; type: cell-based, Mycobacterium tuberculosis
[12] = tested on: M. tuberculosis H37Rv mutant 5L (trpE H170R); type: cell-based, Mycobacterium tuberculosis
TrpE H170R = TrpE H170R (Mycobacterium tuberculosis, UniProt P9WFX3, H170R); type: biochemical
[13] = tested on: M. tuberculosis H37Rv recombineered trpB / trpE mutant strains; type: cell-based, Mycobacterium tuberculosis
C5R mutants of Mtb = type: cell-based, Mycobacterium tuberculosis
[14] = tested on: M. tuberculosis H37Rv overexpressing AmiC (rv2888c, Psmyc); type: cell-based, Mycobacterium tuberculosis

Compound: O=C(Nc1cccc2[nH]ccc12)C1CCCCC1 [C3, N-(1H-indol-4-yl)cyclohexanecarboxamide]
- MIC [1]: >100 µM
- MIC [2]: >100 µM
- MIC [3]: >100 µM
- MIC [4]: >100 µM
- MIC [5]: >100 µM
- MIC [6]: >100 µM
- MIC [7]: >100 µM
- MIC [8]: >100 µM
- MIC [9]: >100 µM
- MIC [10]: >100 µM
- cross-resistance of C1-resistant mutants [11]: cross-resistant
- MIC [12]: >100 µM

Compound: N[C@@H](Cc1c[nH]c2ccccc12)C(=O)O [L-Trp, L-tryptophan]
- loss of sensitivity to allosteric inhibition, H170R vs WT (TrpE H170R): 250 times

Compound: Nc1cccc2[nH]ccc12 [4-AI, 4-aminoindole, reference compound]
- MIC [1]: 4.68 µM (≈ 0.619 µg/mL)
- MIC [2]: 4.68 µM (≈ 0.619 µg/mL)
- MIC [3]: 4.68 µM (≈ 0.619 µg/mL)
- MIC [4]: 4.68 µM (≈ 0.619 µg/mL)
- MIC [5]: 100 µM (≈ 13.2 µg/mL)
- MIC [6]: 100 µM (≈ 13.2 µg/mL)
- MIC [7]: 4.68 µM (≈ 0.619 µg/mL)
- MIC [8]: 100 µM (≈ 13.2 µg/mL)
- MIC [9]: 100 µM (≈ 13.2 µg/mL)
- resistance of recombineered strains [13]: resistant
- MIC [10]: 100 µM (≈ 13.2 µg/mL)
- cross-resistance of amiC mutants [11]: not cross-resistant
- resistance of trpABE mutants [11]: highly resistant
- cross-resistance of C5R mutants (C5R mutants of Mtb): no cross-resistance
- MIC [12]: 100 µM (≈ 13.2 µg/mL)
- shift in MIC [12]: approximately 4 fold

Compound: N-(1H-indol-4-yl)-6-(2,2,2-trifluoroethoxy)nicotinamide [C1]
- MIC [1]: >100 µM
- MIC [2]: >100 µM
- change in MIC on overexpression of AmiC [14]: did not result in a noticeable change in MIC
- MIC [3]: >100 µM
- MIC [4]: >100 µM
- MIC [5]: 6.25 µM
- MIC [6]: 6.25 µM
- MIC [7]: >100 µM
- MIC [8]: 6.25 µM
- MIC [9]: 6.25 µM
- resistance of recombineered strains [13]: resistant
- MIC [10]: 6.25 µM
- cross-resistance of C5R mutants (C5R mutants of Mtb): no cross-resistance
- MIC [12]: 6.25 µM

Compound: CNS(=O)(=O)c1ccc2c(c1)CCN2C(=O)c1ccc(C)s1 [C5, reference compound]
- MIC [1]: 0.39 µM (≈ 0.131 µg/mL)
- MIC [2]: 0.39 µM (≈ 0.131 µg/mL)
- MIC [3]: 0.39 µM (≈ 0.131 µg/mL)
- MIC [4]: 0.39 µM (≈ 0.131 µg/mL)
- MIC [5]: 0.39 µM (≈ 0.131 µg/mL)
- MIC [6]: 0.19 µM (≈ 0.0639 µg/mL)
- MIC [7]: 0.39 µM (≈ 0.131 µg/mL)
- MIC [8]: 0.098 µM (≈ 0.033 µg/mL)
- MIC [9]: 0.19 µM (≈ 0.0639 µg/mL)
- MIC [10]: 0.39 µM (≈ 0.131 µg/mL)
- cross-resistance of mutants raised against C1 [11]: None of the resistant mutants raised against C1 were cross-resistant
- susceptibility of one C1R mutant relative to WT [11]: more susceptible
- MIC [12]: 0.39 µM (≈ 0.131 µg/mL)

Compound: O=C(Nc1cccc2[nH]ccc12)c1ccc(OCC(F)(F)F)cn1 [C4, N-(1H-indol-4-yl)-5-(2,2,2-trifluoroethoxy)picolinamide]
- MIC [1]: 75 µM (≈ 25.1 µg/mL)
- MIC [2]: 75 µM (≈ 25.1 µg/mL)
- MIC [3]: 75 µM (≈ 25.1 µg/mL)
- MIC [4]: 75 µM (≈ 25.1 µg/mL)
- MIC [5]: 25 µM (≈ 8.38 µg/mL)
- MIC [6]: 25 µM (≈ 8.38 µg/mL)
- MIC [7]: 75 µM (≈ 25.1 µg/mL)
- MIC [8]: 25 µM (≈ 8.38 µg/mL)
- MIC [9]: 25 µM (≈ 8.38 µg/mL)
- MIC [10]: 25 µM (≈ 8.38 µg/mL)
- cross-resistance of C1-resistant mutants [11]: cross-resistant
- MIC [12]: 25 µM (≈ 8.38 µg/mL)

Compound: NNC(=O)c1ccncc1 [INH, isoniazid, reference compound]
- MIC [1]: 0.12 µM (≈ 0.0165 µg/mL)
- MIC [2]: 0.12 µM (≈ 0.0165 µg/mL)
- MIC [3]: 0.12 µM (≈ 0.0165 µg/mL)
- MIC [4]: 0.12 µM (≈ 0.0165 µg/mL)
- MIC [5]: 0.12 µM (≈ 0.0165 µg/mL)
- MIC [6]: 0.12 µM (≈ 0.0165 µg/mL)
- MIC [7]: 0.12 µM (≈ 0.0165 µg/mL)
- MIC [8]: 0.12 µM (≈ 0.0165 µg/mL)
- MIC [9]: 0.12 µM (≈ 0.0165 µg/mL)
- resistance of recombineered strains [13]: not
- MIC [10]: 0.12 µM (≈ 0.0165 µg/mL)
- MIC [12]: 0.12 µM (≈ 0.0165 µg/mL)

Compound: O=C(COc1ccccc1)Nc1cccc2[nH]ccc12 [C2, N-(1H-indol-4-yl)-2-phenoxyacetamide]
- MIC [1]: 75 µM (≈ 20 µg/mL)
- MIC [2]: 75 µM (≈ 20 µg/mL)
- MIC [3]: 75 µM (≈ 20 µg/mL)
- MIC [4]: 75 µM (≈ 20 µg/mL)
- MIC [5]: 25 µM (≈ 6.66 µg/mL)
- MIC [6]: 25 µM (≈ 6.66 µg/mL)
- MIC [7]: 75 µM (≈ 20 µg/mL)
- MIC [8]: 25 µM (≈ 6.66 µg/mL)
- MIC [9]: 25 µM (≈ 6.66 µg/mL)
- resistance of recombineered strains [13]: resistant
- MIC [10]: 25 µM (≈ 6.66 µg/mL)
- cross-resistance of C1-resistant mutants [11]: cross-resistant
- MIC [12]: 25 µM (≈ 6.66 µg/mL)
